In patent US8486974B2 (priority 2007, dated 2013):

Columns and labels:
[1] = target: T1, purified human serum BuChE (Homo sapiens, UniProt P06276); experiment: Hydrolysis by purified human serum butyrylcholinesterase; type: in vitro ADME; conditions: Purified human serum (0.15 mg/ml); conc drug 0.12 mM
T1 construct: Purified human serum butyrylcholinesterase (EC 3.1.1.8); purchased Sigma-Aldrich; host or cells: human serum
Procedure: Pooled plasma/serum solutions (4 ml) were prepared to the correct strength by dilution of plasma with phosphate buffer pH 7.4 (e.g. for a 10% solution 0.4 ml of plasma/serum was added to 3.6 ml of phosphate buffer pH 7.4). Following equilibration of the plasma/serum sample at 37±0.5° C. 100 μl of a stock solution of test compound in acetonitrile (1×10^−4 M) was added and 250 μl aliquots were removed at specified time intervals. Samples were transferred to 1.5 ml Eppendorf tubes containing 500 μl of a 2% w/v solution of nSO4.7H2O (water:acetonitrile, 1:1). Tubes were vortexed for 2 minutes, then centrifuged at 10,000 rpm for 3 minutes at room temperature. Supernatant was aspirated off and analysed by HPLC. The concentration of test compound and metabolites were determined with reference to calibration curves run on that day in the same concentration range and under the same experimental conditions. In order to mimic conditions during the first passage of the drugs after intestinal absorption selected compounds were incubated in phosphate buffer at 37° C. in the presence of microsomes from human liver (HLM) and intestinal epithelium (HIM). The metabolic fate of the esters under these conditions was also determined by RPHPLC by measuring the concentration of drug and metabolites in the medium as a function of time. The identity of participating enzymes was confirmed by using purified enzyme in the case of plasma (BuChE) and by repeating the hydrolysis experiments in the presence of esterase specific inhibitors—isoOMPA for BuChE and BNPP for carboxylesterase. The BuChE activity of plasma and microsomal samples was determined using the Ellman assay (Ellman et al., 1964).

[2] = Hydrolysis and aspirin release in buffered human plasma solution (HPLC); conditions: for aspirin production / aspirin produced: 50% human plasma
[3] = tested on: human platelet aggregation to arachidonic acid; experiment: Human platelet aggregation to arachidonic acid in platelet rich plasma; type: cell-based; conditions: Homo sapiens, platelet rich plasma
Procedure: (§1) Blood was collected from healthy volunteers who had not taken any drugs known to affect platelet function for at least 14 days prior to the study. Platelet rich plasma (PRP) and washed platelet suspensions (2.5×10^8 platelets/ml) were prepared from blood as previously described.
(§2) Platelet aggregation was measured by light aggregometry as previously described. Briefly, PRP and washed platelet samples (2.5×10^8/ml) were placed in a whole blood ionized calcium lumi-aggregometer (Chronolog Corp., Havertown, Pa., U.S.A), and (BIO/DATA CORPORATION) and incubated for 10 min at 37° C., with stirring at 900 r.p.m., prior to the addition of aggregating agents. Aggregation was initiated by the addition of agonists, and monitored by Aggro-Link software for at least 6 min. For experiments using inhibitors, aggregation was initiated after 10 min preincubation with these compounds

[4] = tested on: platelet aggregation in human whole blood; experiment: Whole blood aggregation studies (impedance method); type: cell-based; conditions: Homo sapiens, Platelet; arachidonic acid; impedance method; read-out: IC50, platelet aggregation towards arachidonic acid in human whole blood
Procedure: A 500 μl aliquot of blood was mixed with 500 μl of physiological saline and allowed to incubate at 37° C. for 10 mins in the incubation well of a Chrono-Log Whole Blood Aggregometer model 591/592. The sample was then transferred to the assay well, baseline was established and appropriate volume of reagent as above was added. Aggregation was monitored over 6 mins with impedance output recorded on a chart recorder. When testing inhibitors whole blood was pre-incubated with appropriate concentrations of inhibitor in DMSO at 37° C. for a specified length of time before adding the stimulant (10 mins with stirring). Three different aggregating agents, AA (0.5 mM), ADP (10 μM) and Collagen (5 μg/ml) were used. […] DMSO in high concentrations (above 0.25%) can induce a concentration dependent change in platelet cytoplasmic ionised calcium. Before each experiment a control was run using PRP to obtain normal aggregating responses. A sample was also incubated for 10 min at 37° C. with 10 μl DMSO to ensure it was having no inhibitory effect on the aggregation response.

GPIIb/IIIa = experiment: Flow cytometry of activated GPIIb/IIIa (PAC-1) on platelets; type: cell-based, human
Procedure: In order to analyze receptor expression on the surface of individual platelets and to minimize platelet activation caused by sample preparation procedures, no stirring or vortexing steps were used. The abundance of activated GPIIb/IIIa and P-selectin on the surface of platelets in the presence and absence of inhibitors was measured by flow cytometry. Platelet samples were first activated with agonists either collagen or ADP. When platelet aggregation reached 50% maximal light transmission the reaction was terminated by 10-fold dilution with physiologic saline. Resting platelets were used as control. In most of the experiments, platelets were preincubated with inhibitors for 10 min prior to the addition of agonists. Platelet samples were then incubated in the dark without stirring for 5 min at room temperature in the presence of saturating concentrations (10 μg/ml) of P-selectin (CD62P-APC). The activated GPIIb/IIIa platelet receptors were measured using PAC-1 monoclonal antibody at the same concentration as above. PAC-1 specifically recognizes an epitope on the high-affinity GPIIb/IIIa complex of activated platelets at or near the […]. Following incubation, samples were diluted in FACS Flow fluid and analyzed within 5 min using a BD FACSArray (BD Biosciences, Oxford, UK). Flow cytometry was performed on single stained platelet samples as described before^3. The instrument was set up to measure the size (forward scatter), granularity (side scatter) and cell fluorescence. A two-dimensional analysis gate of forward and side scatter was drawn in order to include single platelets and exclude platelet aggregates and microparticles. Antibody binding was measured by analyzing individual platelets for fluorescence. The mean fluorescence intensity was determined after correction for cell autofluorescence. For each sample, the fluorescence was analyzed using a logarithmic scale. Fluorescence histograms were obtained for 10,000 individual events. Data were analyzed using Cytometer RXP software and expressed as a percentage of control fluorescence in arbitrary units.

[5] = cited from earlier work
[6] = in vivo; cited from earlier work
[7] = tested on: collagen-induced human platelet aggregation; experiment: Collagen-induced human platelet aggregation in vitro; type: cell-based
Procedure: as §1, §2
(§3) Collagen at different concentrations (3-5 ug/ml) was also used to induce platelet aggregation. The submaximal concentrations of agonists, i.e. the concentrations that gave approximately 95% of the maximal aggregation were used to study the effects of inhibitors of aggregation. Results were expressed in percent changes in maximal light transmission, with 100% representing light transmission of platelet medium alone.

[8] = tested on: ADP-induced platelet aggregation; experiment: ADP-induced platelet aggregation in PRP; type: cell-based, human
Procedure: as §1, §2, §3

[9] = human, 2.4 µM, pH 7.4
[10] = target: horse plasma butyrylcholinesterase (Equus caballus, UniProt P81908); conditions: cited from earlier work
[11] = phosphate buffered human plasma solutions (Gilmer et al., 2002)

T1 sequence (P06276 29-602): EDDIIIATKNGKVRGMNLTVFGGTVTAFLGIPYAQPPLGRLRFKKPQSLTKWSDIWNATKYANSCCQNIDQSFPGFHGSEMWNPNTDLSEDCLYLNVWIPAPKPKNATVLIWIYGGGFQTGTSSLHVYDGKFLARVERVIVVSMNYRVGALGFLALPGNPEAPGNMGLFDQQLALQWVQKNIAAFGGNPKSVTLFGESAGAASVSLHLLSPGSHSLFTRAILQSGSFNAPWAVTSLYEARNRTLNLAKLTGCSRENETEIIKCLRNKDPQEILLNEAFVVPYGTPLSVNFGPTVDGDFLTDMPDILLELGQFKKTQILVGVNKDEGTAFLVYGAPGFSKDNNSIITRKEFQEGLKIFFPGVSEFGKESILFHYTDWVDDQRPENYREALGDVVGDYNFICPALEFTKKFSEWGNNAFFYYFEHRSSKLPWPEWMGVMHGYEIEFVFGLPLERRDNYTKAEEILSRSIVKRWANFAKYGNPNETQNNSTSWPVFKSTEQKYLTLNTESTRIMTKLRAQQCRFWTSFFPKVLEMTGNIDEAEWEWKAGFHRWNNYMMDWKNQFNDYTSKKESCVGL
Chain of horse plasma butyrylcholinesterase (P81908 whole entry): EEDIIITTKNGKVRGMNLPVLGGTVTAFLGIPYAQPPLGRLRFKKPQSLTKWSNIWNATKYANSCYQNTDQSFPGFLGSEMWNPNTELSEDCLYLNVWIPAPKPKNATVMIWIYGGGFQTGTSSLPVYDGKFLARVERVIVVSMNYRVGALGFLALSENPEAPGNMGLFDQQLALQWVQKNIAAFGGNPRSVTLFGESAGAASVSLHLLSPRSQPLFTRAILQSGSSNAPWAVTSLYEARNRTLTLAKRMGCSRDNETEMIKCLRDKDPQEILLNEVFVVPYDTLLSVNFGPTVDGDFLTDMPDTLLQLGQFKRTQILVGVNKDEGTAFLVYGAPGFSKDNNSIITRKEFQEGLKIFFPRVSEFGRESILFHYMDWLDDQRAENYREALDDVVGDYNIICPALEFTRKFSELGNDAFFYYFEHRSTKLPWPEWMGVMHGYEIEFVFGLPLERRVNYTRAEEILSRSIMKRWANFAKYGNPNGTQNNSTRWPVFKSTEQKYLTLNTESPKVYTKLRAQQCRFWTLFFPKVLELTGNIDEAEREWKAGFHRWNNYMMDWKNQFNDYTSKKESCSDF

With “Isosorbide-2-aspirinate-5-(3-nitrooxy-methyl)benzoate [Compound 32]” the “Aspirin” value [1] was 15 µM, the “Drug disappearace” value [1] was 10 min and the “Salicylic acid” value [1] was 6 µM. For the same compound, the “Aspirin” value ([2]; 50% HP, conc drug 0.25 mM) was 26 µM, the “Salicylic acid” value ([2]; 50% HP, conc drug 0.25 mM) was 18 µM and the aspirin production [2] was 26 µM. For the same compound, the aspirin produced ([2]; drug 2.5×10^−4 M) was 26 µM and the “Salicylic acid” value ([2]; 80% HP, conc drug 0.1 mM) was 9 µM.

Compound “Isosorbide-2-aspirinate-5-(2-nitrooxy-methyl)benzoate [Compound 31]” has an aspirin production [2] of 10.3 µM and an aspirin produced ([2]; drug 1×10^−4 M) of 10.3 µM.

For `CC(=O)Oc1ccccc1C(=O)O[C@@H]1CO[C@H]2[C@@H]1OC[C@@H]2O` [Compound 5-aspirinate, isosorbide-5-aspirinate, reference compound], the “acts as aspirin prodrug in human plasma” value ([2]; human plasma) was “None of these acted as aspirin prodrugs”.

Work on “Isosorbide-2-aspirinate-5-(4-nitrooxy-methyl) benzoate [Compound 33]” yielded an aspirin production [2] of 2 µM and an aspirin produced ([2]; drug 1×10^−4 M) of 2 µM.

For `CC(=O)Oc1ccccc1C(=O)O` [aspirin], the IC50 [3] was 5 µM, the IC50 [4] was 25 µM and the “constitutive platelet glyco-protein expression” value (GPIIb/IIIa; concentrations at which aspirin has no effect) was “has no effect”. The “inhibition of platelets activation” value (GPIIb/IIIa; same concentration like ISAS (2) or nitrate compounds 31-32) was “failed to inhibit platelets activation”, the “half-life in dilute plasma” value ([5]; dilute plasma) was “around one” and the “half-life in the body” value [6] was 20 min.

In the case of “Isosorbide-2-aspirinate-5-(p-cyanobenzoate) [Compound 20]”, the “potency relative to aspirin, inhibition of collagen-induced human platelet aggregation” value [7] is reported as “more potent than aspirin” and the “potency relative to aspirin, inhibition of ADP-induced platelet aggregation” value [8] is reported as “more potent inhibitor”.

For `CC(=O)Oc1ccccc1C(=O)O[C@H]1CO[C@H]2[C@@H]1OC[C@H]2O` [Compound 17, Isosorbide-2-aspirinate-5-OH, reference compound], the “molar % aspirin released in 10% human plasma” value ([2]; 10% human plasma, pH 7.4, 37° C., peak aspirin as percentage of initial ester concentration in moles) was 2.95%, the “Half-life in 10% human plasma” value ([2]; 10% human plasma, phosphate buffer pH 7.4, 37° C.) was 4.08 min and the “acts as aspirin prodrug in human plasma” value ([2]; human plasma) was “is not an aspirin prodrug”. For the same compound, the “acts as aspirin prodrug in human plasma” value ([2]; human plasma, listed as 2-aspirinate) was “None of these acted as aspirin prodrugs”.

In the case of “Isosorbide-2-aspirinate-5-[2-methylbenzoate] [Compound 1]”, the “aspirin release (hydrolysis along the aspirin pathway) in human plasma” value ([2]; human plasma) is reported as “around 60%”.

For `CC(=O)Oc1ccccc1C(=O)O[C@H]1CO[C@H]2[C@@H]1OC[C@H]2OC(=O)c1ccccc1OC(C)=O` [Compound 16, Isosorbide-di-aspirinate], the “hydrolysis along unproductive salicylate pathway” value [9] is listed as 40%, the “aspirin produced in phosphate buffered human plasma solutions” value [5, 11] is listed as “approximately 60%” and the “hydrolysed along the unproductive salicylate pathway” value [5, 11] is listed as 40%. The aspirin generated [10] was 11%.
